For the assay, the system named is SARS-CoV-2. It counts as in vivo. The conditions noted are these: of the 50 subjects in the control group.

In the case of “hydroxychloroquine [Placebo + hydroxychloroquine]”, the “subjects resolved from positive to negative through PCR testing after ten days” value was found to be 9 subjects.

For the origin of these results see US20230201113A1, “IMMUNE BOOSTER - SUPPLEMENT TREATMENT KIT AND METHODS OF USE” (priority 2020, published 2023).
